Measured values reported in US6492180B2, “Non-invasive transdermal detection of analytes” (priority 1998, dated 2002).

Key:
[1] = system: rats; test: In vivo extraction of lead through the skin of lead-fed rats with NMP hydrogel; blood lead; set-up: species or system rat; conditions: Sprague Dawley rats, 750-1,000 ppm lead acetate in water supply, tail vein blood, for several weeks
Description: Determinations of blood lead (Pb) concentrations were conducted by obtaining a blood sample from the tail vein of the animals and analyzing them using an ESA brand LeadCare® Analyzer (Chelmsford, Mass.).
At that time, a clear hydrogel formulation containing 1 gram of the copolymer Pluronic® F127 (BASP), and 2.0 mL of deionized water and 2.0 mL of N-methyl pyrrolidone (Pharmasolve®, ISP, Wayne, N.J.) was prepared. Approximately 1.2 grams of hydrogel was applied to a 2.4 cm diameter polypropylene plastic disk. The disks were attached to a jacket which was affixed to the backs of the rats. The disks were removed after 1 hour.

[2] = In vitro 3H-cocaine transport through swine skin, diffusion cells; type: in vitro ADME; conditions: donor 20 μCi/ml, receptor 50% NMP:H2O
Description: The receptor solution (50% NMP:H2O) was loaded in the lower chamber. Samples from the lower chamber (100 μl) were taken every hour and counted.

[3] = system: rats; test: Detection of 14C-caffeine administered to rats: tissue radioactivity and hydrogel extraction; type: in vivo, rat; conditions: 2.5 hours
Description: Rats were shaven and fasted for 24 hours prior to caffeine administration by intraperitoneal injection of ^14C labeled caffeine to the 600 gram rats. Each animal received approximately 16.7 μCi of ^14C caffeine via intraperitoneal injection of 0.5 mL of ethanol and water.
A 50% NMP:50% water-Pluronic® F127 hydrogel was applied to 2.4 cm diameter plastic disks. The disks were attached to a jacket which was affixed to the backs of the rats. The disks were removed after 2.5 hours. The gel was removed and counted. The rats were sacrificed and blood and tissue were removed for analysis from each animal. The tissue samples were placed in liquid scintillation vials with 1.5 mL of Soluene® (Packard Instruments, Downers Grove, Ill.) in order to dissolve the tissues for valid liquid scintillation counting.

[4] = rat, about 16.7 μCi 14C caffeine i.p.

CC(=O)[O-].CC(=O)[O-].[Pb+2] [lead acetate]
blood lead levels [1]: 50 to 60 µg/dL

COC(=O)[C@H]1[C@@H](OC(=O)c2ccccc2)C[C@@H]2CC[C@H]1N2C [^3H-cocaine, cocaine]
flux through pig skin in vitro [2]: 0.00317 μg/cm^2/hr

Cn1c(=O)c2c(ncn2C)n(C)c1=O [^14C caffeine, caffeine]
Radioactivity (mean dpm ± SD), NMP-Pluronic F127 Hydrogel ([3]; extracted through rat skin into 50% NMP:50% water-Pluronic F127 hydrogel): 58.82 dpm/cm^2/hr
Radioactivity (mean dpm ± SD), Blood [3, 4]: 87.24 dpm/μL
Radioactivity (mean dpm ± SD), Muscle [3, 4]: 64.30 ± 8.73 dpm/mg
Radioactivity (mean dpm ± SD), Skin [3, 4]: 52.15 ± 0.07 dpm/mg
